Reference: the supplement of paper PMC11061612

Columns and labels:
[1] = compound: C[C@@H](Oc1cc(-c2cnn(C3CCNCC3)c2)cnc1N)c1c(Cl)ccc(F)c1Cl [Crizotinib]; conditions: max 10 µM
In short: (§1)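 Plates with 1536 wells received cancer cell lines in 7.5 μl of DMEM/F12 or RPMI containing 10% FBS. After 24 hours at 37°C and 5% CO2, cells were dosed for 72 hours with final DMSO typically 0.2%, and viability was read by CellTiter-Glo 2.0 luminescence scaled between blank-well and DMSO-well means. The single-agent IC50 was taken from a logistic fit of the dose responses made with a non-linear mixed effects model, that logistic curve having two parameters.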

[2] = compound: CS(=O)(=O)CCNCc1ccc(-c2ccc3ncnc(Nc4ccc(OCc5cccc(F)c5)c(Cl)c4)c3c2)o1 [Lapatinib]; conditions: max 10 µM
In short: as §1

[3] = compound: CC(C)n1c(=O)n(C)c2cnc3cc(F)c(-c4ccc(OCCCN5CCCCC5)nc4)cc3c21 [AZD1390]; conditions: max 0.3 µM
In short: as §1

[4] = compound: COc1cc2ncnc(Nc3ccc(F)c(Cl)c3)c2cc1OCCCN1CCOCC1 [Gefitinib]; conditions: max 10 µM
In short: as §1

[5] = compound: C[C@@H]1COCCN1C2=NC(=NC(=C2)C3(CC3)[S@](=N)(=O)C)C4=C5C=CNC5=NC=C4 [AZD6738]; conditions: max 10 µM
In short: as §1

[6] = compound: C1CN(CCC1(C(=O)N[C@@H](CCO)C2=CC=C(C=C2)Cl)N)C3=NC=NC4=C3C=CN4 [AZD5363]; conditions: max 10 µM
In short: as §1

[7] = compound: CC(=O)c1c(C)c2cnc(Nc3ccc(N4CCNCC4)cn3)nc2n(C2CCCC2)c1=O [Palbociclib]; conditions: max 10 µM
In short: as §1

[8] = compound: CN(C)CCCOc1ccc(-c2ccc3ncc4c(c3c2)n(C2CCOCC2)c(=O)n4C)cn1 [AZD0156]; conditions: max 3 µM
In short: as §1

[9] = compound: Cc1c2c(nn1C)CSCc1cc(n(C)n1)CSc1cc(c3ccccc3c1)OCCCc1c(C(=O)O)n(C)c3c-2c(Cl)ccc13 [AZD5991]; conditions: max 1 µM
In short: as §1

[10] = compound: Cc1cc2ncnn2cc1Nc1ncc2c(n1)n(C1CCOCC1)c(=O)n2C [AZD7648]; conditions: max 10 µM
In short: as §1

[11] = compound: O=C(c1cc(Cc2n[nH]c(=O)c3ccccc23)ccc1F)N1CCN(C(=O)C2CC2)CC1 [Olaparib]; conditions: max 10 µM
In short: as §1

[12] = compound: O=C(Nc1ccc2[nH]nc(-c3ccncc3)c2c1)[C@@H]1CCN(CC(=O)N2CCN(c3ccc(-c4ncccn4)cc3)CC2)C1; conditions: max 5 µM
In short: as §1

[13] = compound: Nc1ccn([C@@H]2O[C@H](CO)[C@@H](O)C2(F)F)c(=O)n1 [Gemcitabine]; conditions: max 0.3 µM
In short: as §1

[14] = compound: C[C@@H](c1ccc2nccn2c1)n1nnc2ncc(-c3cnn(C)c3)nc21 [Savolitinib]; conditions: max 1 µM
In short: as §1

[15] = compound: COc1nnc2ccc(N3CCC(c4ccc(OCCN5CCN(C)C(=O)[C@H]5C)cc4)CC3)nn12 [AZD5153]; conditions: max 1 µM
In short: as §1

[16] = compound: Cn1cnc2c(F)c(Nc3ccc(Br)cc3Cl)c(C(=O)NOCCO)cc21 [Selumetinib]; conditions: max 10 µM
In short: as §1

[17] = compound: N#Cc1cnc(Nc2cc(NC[C@H]3CNCCO3)c(C(F)(F)F)cn2)cn1 [SRA737]; conditions: max 10 µM
In short: as §1

[18] = compound: CC1=C(C(=CC=C1)Cl)NC(=O)C2=CN=C(S2)NC3=CC(=NC(=N3)C)N4CCN(CC4)CCO [Dasatinib]; conditions: max 2 µM
In short: as §1

[19] = compound: COc1cccc2c1C(=O)c1c(O)c3c(c(O)c1C2=O)C[C@@](O)(C(=O)CO)C[C@@H]3O[C@H]1C[C@H](N)[C@H](O)[C@H](C)O1 [Doxorubicin]; conditions: max 1 µM
In short: as §1

[20] = compound: COc1cc(Nc2ncc3c(n2)-c2ccc(Cl)cc2C(c2c(F)cccc2OC)=NC3)ccc1C(=O)O [Alisertib]; conditions: max 10 µM
In short: as §1

[21] = compound: COc1cc([C@@H]2c3cc4c(cc3[C@@H](O[C@@H]3O[C@@H]5CO[C@@H](C)O[C@H]5[C@H](O)[C@H]3O)[C@H]3COC(=O)[C@H]23)OCO4)cc(OC)c1O [Etoposide]; conditions: max 10 µM
In short: as §1

[22] = compound: CN(CC[C@H](CSC1=CC=CC=C1)NC2=C(C=C(C=C2)S(=O)(=O)NC(=O)C3=CC=C(C=C3)N4CCC(CC4)[C@H](C5=CC=CC=C5C6=CC=C(C=C6)Cl)O)S(=O)(=O)C(F)(F)F)CCO [AZD4320]; conditions: max 1 µM
In short: as §1

[23] = compound: Cc1nc(-c2cn3c(n2)-c2ccc(-c4cnn(C(C)(C)C(N)=O)c4)cc2OCC3)n(C(C)C)n1 [Taselisib]; conditions: max 10 µM
In short: as §1

[24] = compound: CCc1c2c(nc3ccc(O)cc13)-c1cc3c(c(=O)n1C2)COC(=O)[C@]3(O)CC [SN-38]; conditions: max 0.3 µM
In short: as §1

[25] = compound: CC1(C)CCC(CN2CCN(c3ccc(C(=O)NS(=O)(=O)c4ccc(NCC5CCOCC5)c([N+](=O)[O-])c4)c(Oc4cnc5[nH]ccc5c4)c3)CC2)=C(c2ccc(Cl)cc2)C1 [Venetoclax]; conditions: max 1 µM
In short: as §1

[26] = compound: C[C@@H](Nc1cc(F)cc(F)c1)c1cc(C(=O)N(C)C)cc2c(=O)cc(N3CCOCC3)oc12 [AZD8186]; conditions: max 10 µM
In short: as §1

[27] = compound: CC1=CN2[C@@H](C1)C=NC3=CC(=C(C=C3C2=O)OC)OCCCCCOC4=C(C=C5C(=C4)N=C[C@@H]6CC(=CN6C5=O)C)OC [SG3199]; conditions: max 0.001 µM
In short: as §1

[28] = compound: O=c1[nH]cc(F)c(=O)[nH]1 [5-Fluorouracil]; conditions: max 20 µM
In short: as §1

[29] = compound: CC(=O)Nc1cccc(-n2c(=O)n(C3CC3)c(=O)c3c(Nc4ccc(I)cc4F)n(C)c(=O)c(C)c32)c1 [Trametinib]; conditions: max 1 µM
In short: as §1

[30] = compound: COc1cccc(OCCCN)c1-c1cc(Nc2cnc(C#N)cn2)n[nH]1 [Prexasertib]; conditions: max 1 µM
In short: as §1

[31] = compound: CCN(CCO)CCCOc1ccc2c(Nc3cc(CC(=O)Nc4cccc(F)c4)[nH]n3)ncnc2c1 [AZD2811]; conditions: max 1 µM
In short: as §1

[32] = compound: CC(=O)O[C@H]1C(=O)[C@@]2(C)[C@H]([C@H](OC(=O)c3ccccc3)[C@]3(O)C[C@H](OC(=O)[C@H](O)[C@@H](NC(=O)c4ccccc4)c4ccccc4)C(C)=C1C3(C)C)[C@]1(OC(C)=O)CO[C@@H]1C[C@@H]2O [Paclitaxel]; conditions: max 3 µM
In short: as §1

[33] = compound: NC1(c2ccc(-c3nc4ccn5c(=O)[nH]nc5c4cc3-c3ccccc3)cc2)CCC1 [MK-2206]; conditions: max 10 µM
In short: as §1

[34] = compound: C=CCn1c(=O)c2cnc(Nc3ccc(N4CCN(C)CC4)cc3)nc2n1-c1cccc(C(C)(C)O)n1 [AZD1775]; conditions: max 3 µM
In short: as §1

[35] = compound: C1CC(C1)(C(=O)[O-])C(=O)[O-].N.N.[Pt+2] [Carboplatin]; conditions: max 10 µM
In short: as §1

Row | Cell Line | IC50, cell viability 72 h [1] [µM] | IC50, cell viability 72 h [2] [µM] | IC50, cell viability 72 h [3] [nM] | IC50, cell viability 72 h [4] [µM] | IC50, cell viability 72 h [5] [µM] | IC50, cell viability 72 h [6] [µM] | IC50, cell viability 72 h [7] [µM] | IC50, cell viability 72 h [8] [nM] | IC50, cell viability 72 h [9] [nM] | IC50, cell viability 72 h [10] [µM] | IC50, cell viability 72 h [11] [µM] | IC50, cell viability 72 h [12] [µM] | IC50, cell viability 72 h [13] [nM] | IC50, cell viability 72 h [14] [nM] | IC50, cell viability 72 h [15] [nM] | IC50, cell viability 72 h [16] [µM] | IC50, cell viability 72 h [17] [µM] | IC50, cell viability 72 h [18] [nM] | IC50, cell viability 72 h [19] [nM] | IC50, cell viability 72 h [20] [µM] | IC50, cell viability 72 h [21] [µM] | IC50, cell viability 72 h [22] [nM] | IC50, cell viability 72 h [23] [µM] | IC50, cell viability 72 h [24] [nM] | IC50, cell viability 72 h [25] [nM] | IC50, cell viability 72 h [26] [µM] | IC50, cell viability 72 h [27] [nM] | IC50, cell viability 72 h [28] [µM] | IC50, cell viability 72 h [29] [nM] | IC50, cell viability 72 h [30] [nM] | IC50, cell viability 72 h [31] [nM] | IC50, cell viability 72 h [32] [nM] | IC50, cell viability 72 h [33] [µM] | IC50, cell viability 72 h [34] [nM] | IC50, cell viability 72 h [35] [µM]
1 | NCI-H64 (Small Cell Lung Carcinoma) | 5.17 | > 10 | > 300 | > 10 | 3.17 | > 10 | > 10 | > 3000 | > 1000 | > 10 | > 10 | > 5 | > 300 | > 1000 | > 1000 | > 10 | 3.84 | > 2000 | > 1000 | 4.9 | > 10 | 230 | > 10 | > 300 | > 1000 | > 10 | > 1 | > 20 | > 1000 | 19.6 | 597 | 527 | > 10 | 236 | > 10
2 | NCI-H1581 (Non-Small Cell Lung Carcinoma) | > 10 | > 10 | > 300 | > 10 | > 10 | > 10 | > 10 | > 3000 | 163 | > 10 | > 10 | 3.23 | 195 | > 1000 | > 1000 | > 10 | > 10 | > 2000 | > 1000 | 2.06 | 5.32 | > 1000 | > 10 | 79.5 | > 1000 | > 10 | > 1 | > 20 | 545 | > 1000 | > 1000 | 3.82 | > 10 | 1770 | > 10
3 | NCI-H1666 (Lung Adenocarcinoma) | > 10 | > 10 | > 300 | > 10 | > 10 | > 10 | > 10 | > 3000 | > 1000 | > 10 | > 10 | > 5 | > 300 | > 1000 | > 1000 | 7.17 | > 10 | > 2000 | > 1000 | > 10 | > 10 | > 1000 | 3.2 | 238 | > 1000 | > 10 | > 1 | > 20 | 103 | > 1000 | > 1000 | 794 | > 10 | > 3000 | > 10
4 | NCI-H2066 (Squamous Cell Lung Carcinoma) | > 10 | > 10 | > 300 | > 10 | > 10 | > 10 | > 10 | > 3000 | > 1000 | > 10 | > 10 | > 5 | > 300 | > 1000 | > 1000 | > 10 | > 10 | > 2000 | > 1000 | > 10 | > 10 | > 1000 | 3.92 | > 300 | > 1000 | > 10 | > 1 | > 20 | > 1000 | > 1000 | > 1000 | 320 | > 10 | > 3000 | > 10
5 | NY (Osteosarcoma) | > 10 | > 10 | > 300 | > 10 | > 10 | > 10 | > 10 | > 3000 | > 1000 | > 10 | > 10 | > 5 | 41 | > 1000 | > 1000 | > 10 | 3.44 | > 2000 | > 1000 | > 10 | > 10 | > 1000 | > 10 | 16.1 | > 1000 | > 10 | > 1 | > 20 | > 1000 | 115 | > 1000 | 7.26 | > 10 | 538 | > 10
